Legend:
CYP3A4 = CYP3A4 (Homo sapiens, UniProt P08684, S18F); test: NADPH oxidation assay with CYP3A4 nanodisc and CPR; conditions: triplicate
[1] = In vivo metabolism of CBN in female mice, plasma levels by targeted LC/MS/MS; design: species or system C57BL/6 mice; conditions: for CBN-11-OH formation relative to CBN-1′-OH / CBN-11-OH formation relative to CBN-quinone: 0.5 h, plasma
Protocol: Initially dissolved in ethanol, CBN was combined with a volume of Tween 80, constituting 6% of the total solution volume for injection. Ethanol was eliminated via vacuum evaporation, and saline was added to prepare a 4 mg/mL solution. CBN (20 mg/kg) or vehicle was administered to C57BL/6 mice intravenously (IV) through the retro-orbital sinus or intraperitoneally (IP) at the lower right quadrant of the abdomen. Animals were euthanized at 30- or 120 min postinjection. Blood samples, collected via cardiac puncture into heparin tubes, underwent cold centrifugation at 4500 rpm for 15 min to isolate plasma. Plasma and whole liver samples were flash-frozen at −80 °C for subsequent analysis. Our decision to use female mice for this experiment was based on the availability of age-matched mice in the colony at the time of the experiment.
Mice were anaesthetized with a 3% inhalant dose of isoflurane until their respiratory rate decreased to 50% of baseline (i.e., 40–60 breaths/min) and the righting reflex was abolished. Mice were subsequently removed from the induction chamber and laid on their side. Using the index finger and thumb of the nondominant hand, the skin above and below the eye was retracted until a slight protrusion from the socket was noted. A 29G1/2 needle was inserted, bevel down, into the medial canthus at an approximate 45-degree angle until slight resistance was noted. Volume was slowly infused at a rate of 15uL/second. The needle was subsequently removed from the eye socket, and ophthalmic ointment was added.
Animals were gently restrained by scruff, and the injection site at the lower right quadrant of the abdomen was identified. The needle was inserted at a 60-degree angle to the body, and the plunger was lightly withdrawn to ensure the needle was not in contact with viscera or organs before dispensing volume.
200 μL plasma samples were collected and used for extraction using 1 mL of Hexane: Ethyl acetate (8:2 v/v) following a similar protocol described above.
Samples were analyzed using the Sciex QTrap 6500+ system (Framingham, MA) with Waters Acquity I- class plus UPLC. Software Analyst 1.7.1 was used for data acquisition.
The LC separation was performed on a Waters Acquity UPLC BEH column (2.1 × 100 mm, 1.7 μm) with mobile phase A (0.1% formic acid in water) and mobile phase B (0.1% formic acid in acetonitrile). The flow rate was 0.5 mL/min unless noted otherwise. The linear gradient was as follows: 0–0.5 min, 70%A; 2 min, 20%A; 4–4.2 min, 0%A; 4.21–5.2 min, 0%A (0.8 mL/min); 5.3–6.9 min, 70%A. The autosampler was set at 10 °C, and the column was kept at 50 °C. The injection volume was 5 μL.
Mass spectra were acquired under positive electrospray ionization (ESI) with the ion spray voltage of 4500 V. The source temperature was 500 °C. The curtain gas, ion source gas 1, and ion source gas 2 were 32, 50, and 70 psi, respectively. Multiple reaction monitoring (MRM) was used for quantitation with the MRM transition of CBN (m/z 311.2 → m/z 269.1), CBN-1′–OH (m/z 327.2 → m/z 253.1), CBN-11-OH (m/z 327.2 → m/z 128.1), CBN-p-quinone (m/z 325.2 → m/z 283.1) and EPEA-d4 as internal standard (m/z 350.3 → m/z 66.1).

human liver microsomes = test: CBN metabolism by human liver microsomes, metabolite formation rate; type: in vitro ADME; conditions: HLM, across different CBN concentrations
Protocol: We carried out concentration-dependent metabolism of CBN in the presence of 2 CYPs: 2C9 and 2D6. For the experiment, we used an enzyme concentration of 0.5 μM, reconstituted in the lipid system of POPC: POPS (8:2 v/v), and CPR at 0.6 μM dissolved in 0.1 M potassium phosphate buffer for CYP2C9. The substrate CBN was used in a range of 5–80 μM. The reaction mixture was incubated at 37 °C for 10 min, and then NADPH was added (1 mM), allowing the reaction to proceed for an additional 30 min. We quenched the reactions using a mixture of Hexane: Ethyl Acetate (8:2 v/v) and used the same composition to extract the CBN metabolites. We did a total extraction for three cycles. Following the extractions, the extractions were dried under a continuous stream of nitrogen, and the residual products were finally dissolved in 90% ethanol. We used CYP2D6 in a nanodisc for the metabolism of CBN. […] We carried out the same protocol for the metabolism of CBN using 1 μg of human liver microsome, CPR (0.6 μM) and NADPH (1 mM).
Samples were analyzed with the Sciex QTrap 6500+ system (Framingham, MA) with Waters Acquity I-class plus UPLC. Software Analyst 1.7.1 was used for data acquisition.
The LC separation was performed on a Waters Acquity UPLC BEH column (2.1 × 100 mm, […]) with mobile phase A (0.1% formic acid in water) and mobile phase B (0.1% formic acid in acetonitrile). The flow rate was 0.5 mL/min unless noted otherwise. […]
(§1) Mass spectra were acquired under positive electrospray ionization (ESI) with the ion spray voltage of 4500 V. The source temperature was 500 °C. […] Multiple reaction monitoring (MRM) was used for quantitation, as described in transitions CBN (m/z 311.2 → m/z 205.1), CBN-1′–OH (m/z 327.2 → m/z 253.1), CBN-11-OH (m/z 327.2 → m/z 291.1), CBN-p-quinone (m/z 325.2 → m/z 283.1) and CBC-d9 as internal standard (m/z 324.2→ m/z 202.1).
(§2) All data were analyzed using the software Skyline (daily version 22.2.1.278). […]

CYP2D6 = target: T1, CYP2D6 (Homo sapiens, UniProt P10635); test: CYP2D6 (nanodisc)-mediated CBN metabolism, kinetics of metabolite formation; type: in vitro ADME
T1 construct: polyhistidine (inferred from Ni-NTA purification and histidine elution); made in house; host or cells: E. coli (inferred from the pCWori vector and lysozyme/spheroplast preparation)
Protocol: We carried out concentration-dependent metabolism of CBN in the presence of 2 CYPs: 2C9 and 2D6. For the experiment, we used an enzyme concentration of 0.5 μM, reconstituted in the lipid system of POPC: POPS (8:2 v/v), and CPR at 0.6 μM dissolved in 0.1 M potassium phosphate buffer for CYP2C9. The substrate CBN was used in a range of 5–80 μM. The reaction mixture was incubated at 37 °C for 10 min, and then NADPH was added (1 mM), allowing the reaction to proceed for an additional 30 min. We quenched the reactions using a mixture of Hexane: Ethyl Acetate (8:2 v/v) and used the same composition to extract the CBN metabolites. We did a total extraction for three cycles. […]
Samples were analyzed with the Sciex QTrap 6500+ system (Framingham, MA) with Waters Acquity I-class plus UPLC. […]
as §1, §2

NO = NO levels in LPS-stimulated BV2 microglial cells; type: cell-based; conditions: for change in NO levels compared to cells with only LPS treatment: LPS-stimulated BV2, 1, 2.5 and 5 μM
Protocol: (§3) The BV2 microglial cells were subjected to the treatment of LPS both in the absence and presence of CBN and its selected metabolites. The seeding density for this assay was 1 × 10^5 cells/well. The cells were initially treated with the molecules for 4 h before being stimulated with LPS (25 ng/mL). The NO assay was performed 24 h after the treatment with LPS. The NO assay was performed according to the manufacturer’s protocol, and NO levels were quantified using nitrate standard curves. For the assay, 50 μL of cell media was used in a 96-well plate, and the absorbance was recorded at 540 nm. All measurements were performed in n = 5.

IL-6 = IL-6 ELISA in LPS-stimulated BV2 microglial cells; type: cell-based
Protocol: as §3
(§4) ELISA assays of IL-6, IL-10 (Item No. 88–7105), and Arginase 1 were performed using the same supernatant with which we had completed the NO and LDH assays. The culture media was collected, and the IL-6 (Thermo Scientific) and Arginase 1 (abcam) assays were performed using the specific monoclonal antibodies as per the manufacturer’s instructions.

IL-10 = IL-10 ELISA in LPS-stimulated BV2 microglial cells; type: cell-based; conditions: LPS-stimulated BV2, 1–5 μM
Protocol: as §3, §4

Arginase 1 = Arginase 1 ELISA in LPS-stimulated BV2 microglial cells; type: cell-based
Protocol: as §3, §4

CB1 receptor [2] = target: T2, CB1 receptor (Homo sapiens, UniProt P21554); test: G protein nanoBRET assay, agonist mode, CB1 receptor; conditions: 10 μM, ΔBRET; confirmed by concentration–response, only at high concentrations
CB2 receptor = CB2 receptor (Homo sapiens, UniProt P34972); test: G protein nanoBRET assay, antagonist mode, CB2 receptor; conditions: 50 μM after pretreatment with 1 μM CP-55940
DRG neurons = test: Calcium responses of cultured DRG sensory neurons; type: cell-based; conditions: cultured mouse DRG neurons, 50 μM × 15 s
Protocol: 9 CBN and 11-OH CBN activate DRG neurons with similar response magnitudes but differ in their percentage of neurons activated and time to peak response. Calcium response traces of representative cultured mouse DRG neurons following application of CBN (A) and 11-OH CBN (B) 50 μM × 15 s (arrow). […] Mean value ± SEM (CBN: n = 59; 11-OH CBN: n = 29, two-tailed t test, Prism GraphPad).

CB1 receptor [3] = target: T2, CB1 receptor; test: G protein nanoBRET assay, antagonist mode, CB1 receptor; conditions: 50 μM after pretreatment with 1 μM CP-55940
not read [4] = substrate: CCCCCC1=CC(=O)C2=C(OC(C)(C)c3ccc(C)cc32)C1=O; test: not read; conditions: other: CYP2C9, CBN 5–80 μM
Protocol: (§5) For the experiment, we used an enzyme concentration of 0.5 μM, reconstituted in the lipid system of POPC: POPS (8:2 v/v), and CPR at 0.6 μM dissolved in 0.1 M potassium phosphate buffer for CYP2C9. […] The reaction mixture was incubated at 37 °C for 10 min, and then NADPH was added (1 mM), allowing the reaction to proceed for an additional 30 min. […] We did a total extraction for three cycles. Following the extractions, the extractions were dried under a continuous stream of nitrogen, and the residual products were finally dissolved in 90% ethanol.
(§6) The LC separation was performed on a Waters Acquity UPLC BEH column (2.1 × 100 mm, 1.7 μM) with mobile phase A (0.1% formic acid in water) and mobile phase B (0.1% formic acid in acetonitrile). The flow rate was 0.5 mL/min unless noted otherwise. The linear gradient was as follows: 0–0.5 min, 70%A; 2 min, 20%A; 4–4.2 min, 0%A; 4.21–5.2 min, 0%A (0.8 mL/min); 5.3–6.9 min, 70%A. The autosampler was set at 10 °C, and the column was kept at 50 °C. The injection volume was 5 μL.
(§7) All data were analyzed using the software Skyline (daily version 22.2.1.278). It includes raw data import, peak integration, and a linear regression fit with 1/×2 weighting for the calibration curves.

not read [5] = substrate: CCCC[C@H](O)c1cc(O)c2c(c1)OC(C)(C)c1ccc(C)cc1-2; test: not read; conditions: other: CYP2C9, CBN 5–80 μM
Protocol: as §5, §6, §7

CB2 receptor, sequence (P34972 whole entry): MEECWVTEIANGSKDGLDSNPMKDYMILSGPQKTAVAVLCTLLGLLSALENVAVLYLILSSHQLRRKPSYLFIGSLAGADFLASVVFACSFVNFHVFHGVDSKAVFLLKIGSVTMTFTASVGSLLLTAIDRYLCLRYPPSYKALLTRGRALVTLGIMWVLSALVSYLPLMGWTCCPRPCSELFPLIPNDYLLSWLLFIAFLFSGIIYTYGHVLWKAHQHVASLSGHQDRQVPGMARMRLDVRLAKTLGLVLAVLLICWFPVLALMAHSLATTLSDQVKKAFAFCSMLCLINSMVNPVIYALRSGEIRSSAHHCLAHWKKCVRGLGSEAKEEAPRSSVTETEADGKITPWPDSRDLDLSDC
T2 sequence (P21554 whole entry): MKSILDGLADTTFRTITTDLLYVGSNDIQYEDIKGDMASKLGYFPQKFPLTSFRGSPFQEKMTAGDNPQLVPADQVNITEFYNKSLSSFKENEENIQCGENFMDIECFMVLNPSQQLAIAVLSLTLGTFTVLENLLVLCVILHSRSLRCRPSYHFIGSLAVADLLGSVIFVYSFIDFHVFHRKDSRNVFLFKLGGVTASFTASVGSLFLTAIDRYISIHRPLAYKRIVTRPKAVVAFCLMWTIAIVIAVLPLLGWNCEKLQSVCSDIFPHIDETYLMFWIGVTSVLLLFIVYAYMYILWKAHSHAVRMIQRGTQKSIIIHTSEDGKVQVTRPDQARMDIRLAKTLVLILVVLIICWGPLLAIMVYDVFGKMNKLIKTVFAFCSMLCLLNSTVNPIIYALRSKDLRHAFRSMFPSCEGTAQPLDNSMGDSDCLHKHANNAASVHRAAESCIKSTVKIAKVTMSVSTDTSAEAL
T1 sequence (P10635 with tags, fused parts or gaps limits assumed): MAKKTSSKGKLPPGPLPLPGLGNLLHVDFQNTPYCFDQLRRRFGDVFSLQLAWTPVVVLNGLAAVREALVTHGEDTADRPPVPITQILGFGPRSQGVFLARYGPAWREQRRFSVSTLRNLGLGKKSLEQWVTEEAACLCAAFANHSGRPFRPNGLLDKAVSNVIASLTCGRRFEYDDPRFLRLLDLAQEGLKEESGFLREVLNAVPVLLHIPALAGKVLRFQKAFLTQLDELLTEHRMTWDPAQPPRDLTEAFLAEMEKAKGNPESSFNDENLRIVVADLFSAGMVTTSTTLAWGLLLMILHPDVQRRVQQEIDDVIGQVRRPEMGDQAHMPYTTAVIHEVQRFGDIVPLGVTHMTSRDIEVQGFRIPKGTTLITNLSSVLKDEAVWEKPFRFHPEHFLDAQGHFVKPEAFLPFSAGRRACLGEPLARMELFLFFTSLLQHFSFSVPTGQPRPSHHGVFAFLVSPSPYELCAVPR
CYP3A4, sequence (P08684 with tags, fused parts or gaps S18F limits assumed): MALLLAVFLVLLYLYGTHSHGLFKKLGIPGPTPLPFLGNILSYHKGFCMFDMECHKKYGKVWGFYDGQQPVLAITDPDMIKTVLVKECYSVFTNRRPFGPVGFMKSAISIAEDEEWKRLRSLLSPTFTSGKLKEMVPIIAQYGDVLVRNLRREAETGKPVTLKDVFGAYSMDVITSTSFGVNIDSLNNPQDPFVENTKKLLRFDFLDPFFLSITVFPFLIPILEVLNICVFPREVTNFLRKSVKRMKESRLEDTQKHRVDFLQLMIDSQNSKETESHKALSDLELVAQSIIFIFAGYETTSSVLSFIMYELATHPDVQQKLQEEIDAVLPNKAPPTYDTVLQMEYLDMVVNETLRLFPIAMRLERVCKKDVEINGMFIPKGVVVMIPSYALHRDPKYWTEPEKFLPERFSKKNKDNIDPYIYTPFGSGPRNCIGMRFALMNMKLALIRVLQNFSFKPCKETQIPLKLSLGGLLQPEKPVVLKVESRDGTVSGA

CC(C)C[C@H]1C(=O)N2CCC[C@H]2[C@]2(O)O[C@](NC(=O)[C@@H]3C=C4c5cccc6[nH]c(Br)c(c56)C[C@H]4N(C)C3)(C(C)C)C(=O)N12 [Bromocriptine, reference compound]
rate of NADPH oxidation in the presence of the compound (CYP3A4): 60.788±19.569 nmol/min/nmol

CCCC[C@H](O)c1cc(O)c2c(c1)OC(C)(C)c1ccc(C)cc1-2 [CBN-1′–OH, 3-(1-hydroxypentyl)-6,6,9-trimethyl-6H-benzo[c]chromen-1-ol]
reduction of plasma level between 0.5 and 2 h ([1]; IV administration of CBN): 3 fold
rate of metabolite formation from CBN (human liver microsomes): 9–9.4 × 10^3 pmol/min/nmol
formation of metabolite by CYP2D6 (CYP2D6): did not detect the formation
change in NO levels compared to cells with only LPS treatment (NO): no detectable significant (ns) change
IL-6 production (IL-6; LPS-stimulated BV2, concentration not stated): decrease in IL-6 production
IL-10 levels (IL-10): reversed
Arginase1 levels (Arginase 1): slight increase in Arginase1 levels
agonist effect at CB1 receptor, Gαo activation (CB1 receptor [2]): partial agonist effect
inhibition of CB2 receptor (CB2 receptor): inverse agonist effect

CCCCCc1cc(O)c2c(c1)OC(C)(C)c1ccc(CO)cc1-2 [CBN-11-OH, cannabinol-11-hydroxy]
reduction of plasma level between 0.5 and 2 h ([1]; IP administration of CBN): 2 fold
reduction of plasma level between 0.5 and 2 h ([1]; IV administration of CBN): 3 fold
CBN-11-OH formation relative to CBN-1′-OH ([1]; IV): ~89 times
CBN-11-OH formation relative to CBN-quinone ([1]; IV): ~55 times
CBN-11-OH formation relative to CBN-1′-OH ([1]; i.p.): ~82 fold
CBN-11-OH formation relative to CBN-quinone ([1]; i.p.): ~90 fold
rate of metabolite formation from CBN (human liver microsomes): ≤ 3.4 × 10^4 pmol/min/nmol
production of NO (NO; LPS-stimulated BV2, 5 μM): slightly lower production of NO
change in NO levels compared to cells with only LPS treatment (NO): no detectable significant (ns) change
IL-6 levels (IL-6; LPS-stimulated BV2, 5 μM): reduction in IL-6 levels
IL-10 levels (IL-10): concentration-dependent increase in IL-10 levels
Arginase1 levels (Arginase 1): mixed results
Ca2+ response (%) (DRG neurons): 31.6 ± 2.8%
DRG neuron activation (%) (DRG neurons): 5.4 ± 1.1%
Response Time (DRG neurons): 22.8 ± 2.2 s
[Ca2+]i responses, peak values (DRG neurons): 31.6 ± 2.8%
percentage of DRG neurons activated (DRG neurons): 5.4 ± 1.1%
time to peak response (DRG neurons): 22.8 ± 2.2 s
inhibition of CB1 activation (CB1 receptor [3]): complete ablation of the BRET signal
inhibition of CB2 receptor (CB2 receptor): complete inhibition

CCCCCC1=CC(=O)C2=C(OC(C)(C)c3ccc(C)cc32)C1=O [CBN-quinone, 6,6,9-Trimethyl-3-pentyl-1H-benzo[c]chromene-1,4(6H)-dione]
reduction of plasma level between 0.5 and 2 h ([1]; IV administration of CBN): 9 fold
rate of metabolite formation from CBN (human liver microsomes): further down by approximately three times the value of CBN-1′–OH
Vmax of metabolite formation from CBN (CYP2D6; CBN 5–80 μM): 5.6 pmol/min/nmol
inhibition of CB2 receptor (CB2 receptor): partial inhibition

B1: CYP2C9 (Homo sapiens) (protein)
chain: MDSLVVLVLCLSCLLLLSLWRQSSGRGKLPPGPTPLPVIGNILQIGIKDISKSLTNLSKVYGPVFTLYFGLKPIVVLHGYEAVKEALIDLGEEFSGRGIFPLAERANRGFGIVFSNGKKWKEIRRFSLMTLRNFGMGKRSIEDRVQEEARCLVEELRKTKASPCDPTFILGCAPCNVICSIIFHKRFDYKDQQFLNLMEKLNENIKILSSPWIQICNNFSPIIDYFPGTHNKLLKNVAFMKSYILEKVKEHQESMDMNNPQDFIDCFLMKMEKEKHNQPSEFTIESLENTAVDLFGAGTETTSTTLRYALLLLLKHPEVTAKVQEEIERVIGRNRSPCMQDRSHMPYTDAVVHEVQRYIDLLPTSLPHAVTCDIKFRNYLIPKGTTILISLTSVLHDNKEFPNPEMFDPHHFLDEGGNFKKSKYFMPFSAGKRICVGEALAGMELFLFLTSILQNFNLKSLVDPKNLDTTPVVNGFASVPPFYQLCFIPV
Km (not read [4]): 2.5 µM
kcat (not read [4]): 4.4 pmol/min/nmol
Km (not read [5]): 2.3 µM
kcat (not read [5]): 12.1 pmol/min/nmol

From publication PMC12257535, “Distinct Interactions of Cannabinol and Its Cytochrome P450-Generated Metabolites with Receptors and Sensory Neurons” (Journal of Medicinal Chemistry, 2025)
